From patent publication US20260207602A1, “EGFR INHIBITORS” (Blueprint Medicines Corporation, priority 2022, published 2026) come the findings set out here.

The target of test [1] is T1, EGFR L858R (Homo sapiens, UniProt P00533, L858R).
T1 construct: purchased SignalChem E10-122BG
Description: Biochemical EGFR inhibition assay (Caliper mobility shift), EGFR L858R. The following applies: biochemical Caliper mobility shift assay, EGFR L858R enzyme; read-out: Enz EGFR L858R IC50. As for the experimental part: (§1) Inhibitory effects of the compounds of the disclosure were measured in biochemical assays that measure the phosphorylation activity of EGFR enzyme phosphorylates 2.5 micromolar 5-FAM-[…]-CONH2 peptide substrate (ProfilerPro Kinase Peptide Substrate 22, PerkinElmer, Part #760366) in the presence of adenosine-5′-triphosphate (ATP) and varying concentrations of the test compound in 100 mM 2-[4-(2-hydroxyethyl)piperazin-1-yl]ethanesulfonic acid (HEPES), pH 7.5, 10 mM MgCl2, 0.015% Brij-35, 1 mM dithiothreitol (DTT), 1.0% dimehylsulfoxide (DMSO). Assays were performed at 1.0 mM ATP or at ATP Km of the EGFR enzymes. Reactions proceeded until between 10% to 20% total peptides were phosphorylated at room temperature (25° C.) and were terminated with 35 mM 2,2′,2″,2′″-(ethane-1,2-diyldinitrilo)tetraacetic acid (EDTA). Product was detected using the Caliper mobility shift detection method where the phosphorylated peptide (product) and substrate were electrophoretically separated and measured. Percent activity was plotted against log concentration of compound and points to generate an apparent IC50. The following enzyme forms of • EGFR were examples that were used in these assays: • EGFR WT (SignalChem, E10-112G) • EGFR L858R (SignalChem, E10-122BG) • EGFR (d746-750) (SignalChem, E10-122JG) • EGFR L858R C797S (SignalChem, E10-122ZG) • EGFR (d746-750) C797S (SignalChem, E10-122TG)

In test [2] the target is T2, EGFR (d746-750) (Homo sapiens, UniProt P00533, DEL746-750).
T2 construct: purchased SignalChem E10-122JG
Nature of the test: Biochemical EGFR inhibition assay (Caliper mobility shift), EGFR (d746-750). The settings on record: biochemical Caliper mobility shift assay, EGFR Exon 19-del enzyme; read-out: Enz EGFR Exon 19-del IC50. As for the experimental part:
as §1

The target in test [3] is intracellular phosphorylation of EGFR (Tyr1068) in PC-9 cells (Homo sapiens, UniProt P00533, DEL746-750). Nature of the test: PC-9 pEGFR AlphaLISA assay. It is filed as cell-based. The following applies: 4 hours incubation, read-out: Phos EGFR PC9 IC50. As for the experimental part:
PC-9/A431 pEGFR AlphaLISA Assays
Inhibitory effects of compounds were evaluated in cellular assays that measure level of intracellular phosphorylation of EGFR in PC-9 (ECACC, #90071810, Milipore/Sigma) and A431 cell lines (ATCC, CRL-1555) using AlphaLISA sureFire ultra p-EGFR (Tyr1068) assay kit (PerkinElmer, ALSU-PEGFR-A50K). PC-9 cells were seeded at 3.125×10^5 cells/ml in 40 μL phenol-free DMEM supplemented with 10% FBS per well of a 384 well plate (Corning, 3764), while A431 were seeded at […] in 40 μL in phenol-free DMEM with 0.5% FBS. Cells were allowed to adhere overnight at 37° C./5% CO2. On the next day, compounds were transferred at 4-fold, 10-point serial dilution from compound source plate to cell plates using liquid handler Echo550 and were incubated at 37° C./5% CO2 for 4 hours. A431 cells were stimulated prior harvesting for 10 min with EGF at final concentration of 30 ng/ml in the incubator. Medium was removed from the plates and cells were lysed with 10 μL of 1× AlphaLISA lysis buffer (supplemented with 1× protease/phosphatase inhibitor cocktail) followed by shaking at 600 rpm for 30 minutes at room temperature. Lysates were transferred to Optiplate (Apricot designs) and 5 ul of 1× acceptor bead mix (prepared just before use) was added to each well followed by incubation at room temperature for 1.5-2 h in dark. Then 5 μL of freshly-made donor bead mix is added to each well under subdued lighting or green filters, was mixed well on the shaker and the plate was sealed and left for an overnight incubation at room temperature in dark. On the next day, the plate was read the Envision using standard AlphaLisa settings. Percent of pEGFR inhibition was plotted against log concentration of compounds to generate IC50 values.

Sequence of intracellular phosphorylation of EGFR (Tyr1068) in PC-9 cells (P00533 with tags, fused parts or gaps DEL746-750): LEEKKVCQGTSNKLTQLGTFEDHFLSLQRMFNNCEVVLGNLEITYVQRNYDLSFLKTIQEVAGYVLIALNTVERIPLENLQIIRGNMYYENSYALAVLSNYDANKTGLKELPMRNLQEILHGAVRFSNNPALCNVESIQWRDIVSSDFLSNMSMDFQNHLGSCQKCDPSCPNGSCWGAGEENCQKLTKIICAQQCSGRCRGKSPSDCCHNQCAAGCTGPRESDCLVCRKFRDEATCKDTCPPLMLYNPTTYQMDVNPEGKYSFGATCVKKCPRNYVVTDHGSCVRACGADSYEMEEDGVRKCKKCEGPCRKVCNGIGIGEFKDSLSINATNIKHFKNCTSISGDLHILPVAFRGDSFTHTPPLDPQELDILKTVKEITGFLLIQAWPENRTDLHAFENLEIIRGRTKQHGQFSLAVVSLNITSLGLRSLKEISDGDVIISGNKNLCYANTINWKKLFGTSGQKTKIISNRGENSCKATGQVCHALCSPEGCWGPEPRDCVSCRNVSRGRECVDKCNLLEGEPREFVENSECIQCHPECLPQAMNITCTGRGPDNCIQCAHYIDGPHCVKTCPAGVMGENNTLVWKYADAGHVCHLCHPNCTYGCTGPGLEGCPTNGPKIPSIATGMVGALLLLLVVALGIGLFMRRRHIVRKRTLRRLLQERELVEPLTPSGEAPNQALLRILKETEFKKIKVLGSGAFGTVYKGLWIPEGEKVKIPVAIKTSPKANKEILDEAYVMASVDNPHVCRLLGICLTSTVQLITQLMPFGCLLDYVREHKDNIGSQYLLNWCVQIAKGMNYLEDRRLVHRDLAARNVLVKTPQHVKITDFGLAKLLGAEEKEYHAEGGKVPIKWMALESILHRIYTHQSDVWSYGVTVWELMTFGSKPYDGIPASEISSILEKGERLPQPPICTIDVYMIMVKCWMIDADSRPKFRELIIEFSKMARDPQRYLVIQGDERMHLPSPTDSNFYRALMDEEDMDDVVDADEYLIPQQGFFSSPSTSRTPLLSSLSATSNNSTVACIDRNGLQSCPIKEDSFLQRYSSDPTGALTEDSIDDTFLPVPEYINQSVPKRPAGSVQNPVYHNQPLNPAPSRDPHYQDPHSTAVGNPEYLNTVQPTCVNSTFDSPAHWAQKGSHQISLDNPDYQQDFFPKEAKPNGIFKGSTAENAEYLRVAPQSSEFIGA
T2 sequence (P00533 with tags, fused parts or gaps DEL746-750 limits assumed): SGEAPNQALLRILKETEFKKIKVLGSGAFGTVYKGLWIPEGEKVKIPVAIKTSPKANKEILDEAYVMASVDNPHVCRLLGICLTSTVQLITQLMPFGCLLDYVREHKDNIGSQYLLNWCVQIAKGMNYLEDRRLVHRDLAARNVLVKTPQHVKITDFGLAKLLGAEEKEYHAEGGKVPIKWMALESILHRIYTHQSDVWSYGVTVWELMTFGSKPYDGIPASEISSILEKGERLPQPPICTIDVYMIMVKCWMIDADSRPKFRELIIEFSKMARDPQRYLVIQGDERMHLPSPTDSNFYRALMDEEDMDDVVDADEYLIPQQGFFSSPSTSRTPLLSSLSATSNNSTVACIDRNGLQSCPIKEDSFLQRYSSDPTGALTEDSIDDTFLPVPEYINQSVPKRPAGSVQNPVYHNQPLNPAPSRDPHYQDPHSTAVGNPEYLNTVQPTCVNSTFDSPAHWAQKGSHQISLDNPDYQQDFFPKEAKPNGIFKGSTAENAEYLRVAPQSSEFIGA
T1 sequence (P00533 25-1210 L858R): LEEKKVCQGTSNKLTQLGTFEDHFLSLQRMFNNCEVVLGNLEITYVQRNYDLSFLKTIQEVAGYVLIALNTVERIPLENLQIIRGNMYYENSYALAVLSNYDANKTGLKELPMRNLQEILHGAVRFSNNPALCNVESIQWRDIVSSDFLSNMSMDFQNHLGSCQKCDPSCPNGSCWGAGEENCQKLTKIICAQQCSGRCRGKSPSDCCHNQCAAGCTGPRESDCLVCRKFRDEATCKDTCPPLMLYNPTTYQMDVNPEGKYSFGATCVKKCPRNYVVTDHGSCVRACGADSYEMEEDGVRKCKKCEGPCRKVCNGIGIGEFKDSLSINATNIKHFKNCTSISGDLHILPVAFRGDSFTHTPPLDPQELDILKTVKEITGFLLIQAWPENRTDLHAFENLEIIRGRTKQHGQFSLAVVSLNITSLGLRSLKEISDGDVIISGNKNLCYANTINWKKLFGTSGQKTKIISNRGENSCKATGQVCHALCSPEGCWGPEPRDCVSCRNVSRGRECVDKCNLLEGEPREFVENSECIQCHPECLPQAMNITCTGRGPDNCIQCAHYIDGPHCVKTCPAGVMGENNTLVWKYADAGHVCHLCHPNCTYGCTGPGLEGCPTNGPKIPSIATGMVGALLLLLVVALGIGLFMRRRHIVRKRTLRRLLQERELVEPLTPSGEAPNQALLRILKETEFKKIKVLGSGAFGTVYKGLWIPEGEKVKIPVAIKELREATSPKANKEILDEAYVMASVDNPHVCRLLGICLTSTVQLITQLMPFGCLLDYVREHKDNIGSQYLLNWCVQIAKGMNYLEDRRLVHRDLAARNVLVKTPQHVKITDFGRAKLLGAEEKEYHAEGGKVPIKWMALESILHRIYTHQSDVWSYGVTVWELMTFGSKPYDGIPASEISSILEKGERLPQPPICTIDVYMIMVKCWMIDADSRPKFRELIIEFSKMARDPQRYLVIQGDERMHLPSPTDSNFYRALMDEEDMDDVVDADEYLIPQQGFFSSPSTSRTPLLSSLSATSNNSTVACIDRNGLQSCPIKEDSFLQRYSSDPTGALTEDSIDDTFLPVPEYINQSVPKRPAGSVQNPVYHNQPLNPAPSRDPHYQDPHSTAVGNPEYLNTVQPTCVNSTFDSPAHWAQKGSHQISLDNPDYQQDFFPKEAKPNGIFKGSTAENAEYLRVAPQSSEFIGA

Regarding `C[C@H](CO)n1cc(-c2cc(O[C@H](C)C3COC3)c3c(Nc4ccc5ncsc5c4)ncnc3c2)cn1` (single isomer, unassigned) [Example 297], the IC50 in test [1], in test [2] and in test [3] was not above 10 nM throughout.

In the case of `CN1CC[C@H](Oc2cc(-c3cn(C)nc3OC(F)F)cc3ncnc(Nc4ccc5ncsc5c4)c23)[C@@H](F)C1` (single isomer, unassigned) [Example 369], the IC50 in test [1] was 10.1 to 50 nM; in test [2], not above 10 nM; in test [3], 10.1 to 50 nM.

Take `Cn1cc(-c2cc(O[C@H]3CNCC[C@@H]3O)c3c(Nc4ccc5ncsc5c4)ncnc3c2)cn1` (racemic) [Example A45, (3S,4S)-3-((4-(benzo[d]thiazol-6-ylamino)-7-(1-methyl-1H-pyrazol-4-yl)quinazolin-5-yl)oxy)piperidin-4-ol]: the figures for the IC50 in test [1], in test [2] and in test [3] were 10.1 to 50 nM, not above 10 nM and more than 50.1 nM, respectively.

Consider `CO[C@@H]1CNCC[C@H]1Oc1cc(-c2cnn(C)c2)cc2ncnc(Nc3ccc4ncsc4c3)c12` (single isomer, unassigned) [Example A42], for which the IC50 in test [1], in test [2] and in test [3] was not above 10 nM each time.

`CN(C)C(=O)COc1cc(-c2cnn(C)c2)cc2ncnc(Nc3ccc4ncsc4c3F)c12` [Example 274, 2-((4-((7-fluorobenzo[d]thiazol-6-yl)amino)-7-(1-methyl-1H-pyrazol-4-yl)quinazolin-5-yl)oxy)-N,N-dimethylacetamide]: the concentration for half-maximal inhibition (IC50) in test [1], in test [2] and in test [3] was not above 10 nM in each case.

Regarding `CC(C)Oc1cc(-c2cnn(C)c2)cc2ncnc(Nc3ccc4ncsc4c3)c12` [Example 405, N-(5-isopropoxy-7-(1-methyl-1H-pyrazol-4-yl)quinazolin-4-yl)benzo[d]thiazol-6-amine], the 50% inhibitory concentration (IC50) in test [1], in test [2] and in test [3] was not above 10 nM each time.

For `C[C@@H]1CN(c2cc(O[C@H](C)C3COC3)c3c(Nc4ccc5ncsc5c4F)ncnc3c2)CCN1` (single isomer, unassigned) [Example 100], the half-maximal inhibitory concentration (IC50) was 10.1 to 50 nM in test [1], not above 10 nM in test [2] and 10.1 to 50 nM in test [3].

Turning to `Cn1cc(-c2cc(OCC(F)(F)F)c3c(Nc4ccc5ncsc5c4)ncnc3c2)cn1` [Example 50, N-(7-(1-methyl-1H-pyrazol-4-yl)-5-(2,2,2-trifluoroethoxy)quinazolin-4-yl)benzo[d]thiazol-6-amine], the IC50 in test [1] was not above 10 nM; in test [2] it was not above 10 nM; in test [3], 10.1 to 50 nM.

`CN1C[C@H](F)[C@H](Oc2cc(-c3cnn(C)c3)cc3ncnc(Nc4ccc5ncsc5c4)c23)C1` (single isomer, unassigned) [Example 381]: the results for the IC50 in test [1] and in test [3] were not above 10 nM and 10.1 to 50 nM, respectively.

In the case of `Cn1cc(-c2cc(O[C@@H]3CCOC[C@@H]3F)c3c(Nc4ccc5ncsc5c4)ncnc3c2)cn1` (single isomer, unassigned) [Example 44], the 50% inhibitory concentration (IC50) in test [1] is not above 10 nM; in test [3], 10.1 to 50 nM.

Regarding `CN1CC[C@@](C)(COc2cc(-c3cnn(C)c3)cc3ncnc(Nc4ccc5ncsc5c4)c23)C1=O` (single isomer, unassigned) [Example 56], the half-inhibitory concentration (IC50) in test [1] is not above 10 nM; in test [3], 10.1 to 50 nM.

Consider `CO[C@@H]1CN(C)CC[C@H]1Oc1cc(-c2cnn(C)c2)cc2ncnc(Nc3ccc4ncsc4c3)c12` (single isomer, unassigned) [Example A44], for which the IC50 was not above 10 nM in test [1] and 10.1 to 50 nM in test [3].

On to `CN1CC[C@@H](Oc2cc(-c3cnn(C)c3)cc3ncnc(Nc4ccc5ncsc5c4F)c23)C1` [Example 4, (R)-7-fluoro-N-(7-(1-methyl-1H-pyrazol-4-yl)-5-((1-methylpyrrolidin-3-yl)oxy)quinazolin-4-yl)benzo[d]thiazol-6-amine], for which the concentration for half-maximal inhibition (IC50) in test [1] and in test [3] was 10.1 to 50 nM in each case.

Consider `COc1cc(-c2cc(OC3CCOCC3)c3c(Nc4ccc5ncsc5c4)ncnc3c2)n(C)n1` [Example 256, N-(7-(3-methoxy-1-methyl-1H-pyrazol-5-yl)-5-((tetrahydro-2H-pyran-4-yl)oxy)quinazolin-4-yl)benzo[d]thiazol-6-amine], for which the IC50 in test [1] and in test [2] was more than 50.1 nM in each case.

Take `CN1CCN(c2cc(OC3CCOCC3)c3c(Nc4ccc5ncsc5c4)ncnc3c2)CC1(C)C` [Example A58, N-(5-((tetrahydro-2H-pyran-4-yl)oxy)-7-(3,3,4-trimethylpiperazin-1-yl)quinazolin-4-yl)benzo[d]thiazol-6-amine]: the 50% inhibitory concentration (IC50) in test [1] and in test [2] was more than 50.1 nM in each case.

For `CN1CCN(C(=O)Oc2cc(OC3CCOCC3)c3c(Nc4ccc5ncsc5c4)ncnc3c2)CC1` [Example A11, 4-[(1,3-benzothiazol-6-yl)amino]-5-(oxan-4-yloxy)quinazolin-7-yl 4-methylpiperazine-1-carboxylate], the IC50 is more than 50.1 nM in test [1] and 10.1 to 50 nM in test [2].

Turning to `COc1cc2c(Nc3ccc4ncsc4c3F)ncnc2cc1-c1cnn(C)c1` [Example 265, 7-fluoro-N-(6-methoxy-7-(1-methyl-1H-pyrazol-4-yl)quinazolin-4-yl)benzo[d]thiazol-6-amine], the IC50 in test [1] and in test [3] was not above 10 nM each time.

For the compound `C[C@H](CO)Oc1cc(N2CCN(C)CC2)cc2ncnc(Nc3ccc4ncsc4c3)c12` (single isomer, unassigned) [Example 294], the half-inhibitory concentration (IC50) in test [1] is not above 10 nM; in test [3] it was 10.1 to 50 nM.

As to `Cn1cc(-c2cc(O[C@@H]3C[C@@H](O)[C@@H](O)C3)c3c(Nc4ccc5ncsc5c4)ncnc3c2)cn1` (single isomer, unassigned) [Example A23], the IC50 is not above 10 nM in test [1] and 10.1 to 50 nM in test [3].

As to `Cn1cc(-c2cc(OCC3CCOC3)c3c(Nc4ccc5ncsc5c4)ncnc3c2)cn1` (single isomer, unassigned) [Example 42], the IC50 was not above 10 nM in test [1] and 10.1 to 50 nM in test [3].

As to `CN1CC[C@H](Oc2cc(-c3cnn(C)c3)cc3ncnc(Nc4ccc5ncsc5c4)c23)[C@@H](O)C1` (single isomer, unassigned) [Example A36], the figures for the IC50 in test [1] and in test [3] were not above 10 nM and 10.1 to 50 nM, respectively.

For `COc1nn(C2CCN(C)CC2)cc1-c1cc(F)c2c(Nc3ccc4ncsc4c3F)ncnc2c1` [Example 226, 7-fluoro-N-(5-fluoro-7-(3-methoxy-1-(1-methylpiperidin-4-yl)-1H-pyrazol-4-yl)quinazolin-4-yl)benzo[d]thiazol-6-amine], the figures for the IC50 in test [1] and in test [2] were more than 50.1 nM and 10.1 to 50 nM, respectively.

`C[C@H]1[C@H](Oc2cc(-c3cnn(C)c3)cc3ncnc(Nc4ccc5ncsc5c4)c23)CN1C` (single isomer, unassigned) [Example 322]: the IC50 in test [1] is 10.1 to 50 nM; in test [2] it was not above 10 nM.

As for `COc1cc2ncnc(Nc3ccc4ncsc4c3)c2cc1N[C@@H]1CCN(C)C[C@H]1F` [Example 301, N4-(benzo[d]thiazol-6-yl)-N6-((3R,4R)-3-fluoro-1-methylpiperidin-4-yl)-7-methoxyquinazoline-4,6-diamine], the IC50 in test [1] and in test [2] was not above 10 nM in each case.

Regarding `COC[C@H](C)Oc1cc(N2CCN(C)CC2)cc2ncnc(Nc3ccc4ncsc4c3)c12` (single isomer, unassigned) [Example 206], the concentration for half-maximal inhibition (IC50) in test [1] is not above 10 nM; in test [3], 10.1 to 50 nM.

As usually defined, the IC50 is the concentration needed to halve the response being measured.
